Laboratory results as given in patent publication US9932354B2, “Imidazo-oxadiazole and imidazo-thiadiazole derivatives” (Ares Trading S.A., priority 2012, dated 2018).

Key:
[1] = test system: Amyloid-β peptide release (AβTotal), HEK cells overexpressing APP (HEK-APP); test: Amyloid-β peptide release (AβTotal) assay, AlphaLISA on supernatant of HEK-APP cells; type: cell-based; conditions: ratio Abtot vs Ab42, HEK-APP cells, 24 h
[2] = test system: Amyloid-β peptide release (Aβ42), HEK cells overexpressing APP (HEK-APP); test: Amyloid-β peptide release (Aβ42) assay, AlphaLISA on supernatant of HEK-APP cells; type: cell-based; conditions: Homo sapiens, HEK293, 24 h incubation with compound, read-out: Ab42 IC50 Ranges
Method in brief: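 HEK-APP cells treated with compounds for 24 h at 37 °C, 5% CO2. Supernatant Aβ42 or total Aβ measured by AlphaLISA after 4.5 h with antibody beads (6E10 acceptor beads for total). IC50 values derived.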

Row | Structure (SMILES) | Abtot/Ab42 selectivity ranges [1] | IC50 [2]
1 | Cc1ncc2oc(-c3ccc(NC(=O)C(c4ccccc4)c4ccccc4)cn3)nn12 [Example 80, N-[6-(5-Methyl-imidazo[5,1-b][1,2,4]oxadiazol-2-yl)-pyridin-3-yl]-2,2-diphenyl-acetamide] | c (c: 50 fold > selectivity ≥ 10 fold) | 500 to 1000 nM
2 | Cc1ncc2oc(-c3ccc(NC(=O)Cc4ccccc4OC(F)(F)F)cn3)nn12 [Example 81, N-[6-(5-Methyl-imidazo[5,1-b][1,2,4]oxadiazol-2-yl)-pyridin-3-yl]-2-(2-trifluoromethoxy-phenyl)-acetamide] | c (c: 50 fold > selectivity ≥ 10 fold) | 1000 to 2200 nM
3 | Cc1ncc2oc(-c3ccc(NC(=O)Cc4ccc(Cl)cc4Cl)cn3)nn12 [Example 82] | c (c: 50 fold > selectivity ≥ 10 fold) | 1000 to 2200 nM
4 | Cc1ncc2oc(-c3ccc(NC(=O)Cc4ccccc4C(F)(F)F)cn3)nn12 [Example 83, N-[6-(5-Methyl-imidazo[5,1-b][1,2,4]oxadiazol-2-yl)-pyridin-3-yl]-2-(2-trifluoromethyl-phenyl)-acetamide] | c (c: 50 fold > selectivity ≥ 10 fold) | 1000 to 2200 nM
5 | Cc1ncc2oc(-c3ccc(NC(=O)C4(c5ccc(Cl)cc5)CCC4)cn3)nn12 [Example 84, 1-(4-Chloro-phenyl)-cyclobutanecarboxylic acid [6-(5-methyl-imidazo[5,1-b][1,2,4]oxadiazol-2-yl)-pyridin-3-yl]-amide] | c (c: 50 fold > selectivity ≥ 10 fold) | 500 to 1000 nM
6 | CCC(C(=O)Nc1ccc(-c2nn3c(C)ncc3o2)nc1)c1ccccc1 (stereo not shown) [Example 85, N-[6-(5-Methyl-imidazo[5,1-b][1,2,4]oxadiazol-2-yl)-pyridin-3-yl]-2-phenyl-butyramide] | c (c: 50 fold > selectivity ≥ 10 fold) | 1000 to 2200 nM
7 | Cc1ncc2oc(-c3ccc(C(=O)NCc4cccc5ccccc45)cc3)nn12 [Example 86, 4-(5-methylimidazo[5,1-b][1,3,4]oxadiazol-2-yl)-N-(naphthalen-1-ylmethyl)benzamide] | b (b: 100 fold > selectivity ≥ 50 fold) | 500 to 1000 nM
8 | Cc1ncc2oc(-c3ccc(C(=O)NCc4cccc(Cl)c4Cl)cc3)nn12 [Example 87, N-(2,3-dichlorobenzyl)-4-(5-methylimidazo[5,1-b][1,3,4]oxadiazol-2-yl)benzamide] | c (c: 50 fold > selectivity ≥ 10 fold) | 1000 to 2200 nM
9 | Cc1ncc2oc(-c3ccc(C(=O)NCc4csc5ccc(Cl)cc45)cc3)nn12 [Example 88, N-((5-chlorobenzo[b]thiophen-3-yl)methyl)-4-(5-methylimidazo[5,1-b][1,3,4]oxadiazol-2-yl)benzamide] | c (c: 50 fold > selectivity ≥ 10 fold) | 1000 to 2200 nM
10 | Cc1ncc2sc(C(=O)N(Cc3ccccc3)CC(C)C)nn12 [Example 89, 5-Methyl-imidazo[5,1-b][1,3,4]thiadiazole-2-carboxylic acid benzyl-isobutyl-amide] | d (d: 10 fold > selectivity) | 100 to 500 nM
11 | CCOc1ccccc1C(C)NC(=O)c1nn2c(C)ncc2s1 (stereo not shown) [Example 90, 5-Methyl-imidazo[5,1-b][1,3,4]thiadiazole-2-carboxylic acid [1-(2-ethoxy-phenyl)-ethyl]-amide] | d (d: 10 fold > selectivity) | 500 to 1000 nM
12 | Cc1ncc2sc(C(=O)NC(c3ccc(Cl)cc3)C3CC3)nn12 (stereo not shown) [Example 91, 5-Methyl-imidazo[5,1-b][1,3,4]thiadiazole-2-carboxylic acid [(4-chloro-phenyl)-cyclopropyl-methyl]-amide] | d (d: 10 fold > selectivity) | 1000 to 2200 nM
13 | Cc1ncc2sc(C(=O)NCc3ccccc3OCC(F)(F)F)nn12 [Example 92, 5-Methyl-imidazo[5,1-b][1,3,4]thiadiazole-2-carboxylic acid 2-(2,2,2-trifluoro-ethoxy)-benzylamide] | d (d: 10 fold > selectivity) | < 100 nM
14 | Cc1ncc2sc(C(=O)N3CCCC3c3ccccc3)nn12 (stereo not shown) [Example 93, (5-Methyl-imidazo[5,1-b][1,3,4]thiadiazol-2-yl)-(2-phenyl-pyrrolidin-1-yl)-methanone] | d (d: 10 fold > selectivity) | 100 to 500 nM
15 | Cc1ncc2sc(C(=O)NCCc3c[nH]c4ccccc34)nn12 [Example 94, 5-Methyl-imidazo[5,1-b][1,3,4]thiadiazole-2-carboxylic acid [2-(1H-indol-3-yl)-ethyl]-amide] | d (d: 10 fold > selectivity) | 500 to 1000 nM
16 | Cc1ncc2sc(C(=O)N(C)Cc3cccc(Cl)c3)nn12 [Example 95, 5-Methyl-imidazo[5,1-b][1,3,4]thiadiazole-2-carboxylic acid (3-chloro-benzyl)-methyl-amide] | d (d: 10 fold > selectivity) | 500 to 1000 nM

Row | Structure (SMILES) | Abtot/Ab42 selectivity ranges [1] | IC50 [2]
17 | CCOc1ccccc1CNC(=O)c1nn2c(C)ncc2s1 [Example 96, 5-Methyl-imidazo[5,1-b][1,3,4]thiadiazole-2-carboxylic acid 2-ethoxy-benzylamide] | d (d: 10 fold > selectivity) | 500 to 1000 nM
18 | Cc1ncc2sc(C(=O)N(C)CCc3ccccc3)nn12 [Example 97, 5-Methyl-imidazo[5,1-b][1,3,4]thiadiazole-2-carboxylic acid methyl-phenethyl-amide] | d (d: 10 fold > selectivity) | 500 to 1000 nM
19 | Cc1ncc2sc(C(=O)N(C)Cc3ccccc3)nn12 [Example 98, 5-Methyl-imidazo[5,1-b][1,3,4]thiadiazole-2-carboxylic acid benzyl-methyl-amide] | d (d: 10 fold > selectivity) | 1000 to 2200 nM
20 | CCN(Cc1ccccc1)C(=O)c1nn2c(C)ncc2s1 [Example 99, 5-Methyl-imidazo[5,1-b][1,3,4]thiadiazole-2-carboxylic acid benzyl-ethyl-amide] | d (d: 10 fold > selectivity) | 1000 to 2200 nM
21 | Cc1ncc2sc(-c3ccc(NC(=O)Cc4cccc(C(F)(F)F)c4)cc3)nn12 [Example 100, N-[4-(5-Methyl-imidazo[5,1-b][1,3,4]thiadiazol-2-yl)-phenyl]-2-(3-trifluoromethyl-phenyl)-acetamide] | b (b: 100 fold > selectivity ≥ 50 fold) | 100 to 500 nM
22 | Cc1ncc2sc(C(=O)N(C)Cc3cccc(C(F)(F)F)c3)nn12 [Example 101, 5-Methyl-imidazo[5,1-b][1,3,4]thiadiazole-2-carboxylic acid methyl-(3-trifluoromethyl-benzyl)-amide] | d (d: 10 fold > selectivity) | 500 to 1000 nM
23 | Cc1ncc2sc(-c3nnc(NCc4ccc(Cl)c(Cl)c4)o3)nn12 [Example 102, (3,4-Dichloro-benzyl)-[5-(5-methyl-imidazo[5,1-b][1,3,4]thiadiazol-2-yl)-[1,3,4]oxadiazol-2-yl]-amine] | d (d: 10 fold > selectivity) | 100 to 500 nM
24 | Cc1ncc2sc(-c3nnc(NCc4ccc(F)cc4)o3)nn12 [Example 103, (4-Fluoro-benzyl)-[5-(5-methyl-imidazo[5,1-b][1,3,4]thiadiazol-2-yl)-[1,3,4]oxadiazol-2-yl]-amine] | d (d: 10 fold > selectivity) | 500 to 1000 nM
25 | Cc1ncc2sc(-c3nnc(NCc4ccccc4F)o3)nn12 [Example 104, (2-Fluoro-benzyl)-[5-(5-methyl-imidazo[5,1-b][1,3,4]thiadiazol-2-yl)-[1,3,4]oxadiazol-2-yl]-amine] | d (d: 10 fold > selectivity) | 1000 to 2200 nM
26 | Cc1ncc2sc(C(=O)NCc3cccc4ccccc34)nn12 [Example 105, 5-methyl-N-(naphthalen-1-ylmethyl)imidazo[5,1-b][1,3,4]thiadiazole-2-carboxamide] | d (d: 10 fold > selectivity) | 500 to 1000 nM
27 | Cc1ncc2sc(C(=O)NCc3ccc(Oc4ccc(F)cc4)cc3)nn12 [Example 106, 5-Methyl-imidazo[5,1-b][1,3,4]thiadiazole-2-carboxylic acid 4-(4-fluoro-phenoxy)-benzylamide] | b (b: 100 fold > selectivity ≥ 50 fold) | 100 to 500 nM
28 | Cc1ncc2sc(C(=O)NCc3ccc(Oc4ccccc4)cc3)nn12 [Example 107, 5-Methyl-imidazo[5,1-b][1,3,4]thiadiazole-2-carboxylic acid 4-phenoxy-benzylamide] | c (c: 50 fold > selectivity ≥ 10 fold) | 100 to 500 nM
29 | Cc1ncc2sc(C(=O)N3CCCCC3c3ccccc3)nn12 (stereo not shown) [Example 108, (5-Methyl-imidazo[5,1-b][1,3,4]thiadiazol-2-yl)-(2-phenyl-piperidin-1-yl)-methanone] | d (d: 10 fold > selectivity) | 500 to 1000 nM
30 | Cc1ncc2sc(C(=O)N3CCCC(c4ccc(F)cc4)C3)nn12 (stereo not shown) [Example 109, [3-(4-Fluoro-phenyl)-piperidin-1-yl]-(5-methyl-imidazo[5,1-b][1,3,4]thiadiazol-2-yl)-methanone] | d (d: 10 fold > selectivity) | 1000 to 2200 nM
31 | Cc1ncc2sc(C(=O)N3CCCC3c3ccc(Br)cc3)nn12 (stereo not shown) [Example 110, [2-(4-Bromo-phenyl)-pyrrolidin-1-yl]-(5-methyl-imidazo[5,1-b][1,3,4]thiadiazol-2-yl)-methanone] | d (d: 10 fold > selectivity) | < 100 nM
32 | Cc1ncc2sc(C(=O)NCc3ccccc3-c3ccccc3)nn12 [Example 111, 5-Methyl-imidazo[5,1-b][1,3,4]thiadiazole-2-carboxylic acid (biphenyl-2-ylmethyl)-amide] | d (d: 10 fold > selectivity) | 1000 to 2200 nM
